3 compounds from US4521413A, “Cephem compounds” (Fujisawa Pharmaceutical Co., Ltd., priority 1981, dated 1985) can be followed below.

Structures are written as SMILES. In brackets after ≈: the same amount, converted by molar mass.

One assay concerns B. subtilis ATCC 6633. As to the kind of experiment: Minimal inhibitory concentration (MIC), agar streak test on heart infusion agar. Type of assay: cell-based. The conditions noted are these: Bacillus subtilis, ATCC6633, 37° C. for 20 hours, 10^8 viable cells per ml. Here is the method: (§1) One loopful of an overnight culture of each test strain in Trypticase-soy broth (10^8 viable cells per ml.) was streaked on heart infusion agar (HI-agar) containing graded concentrations of antibiotics, and the minimal inhibitory concentration (MIC) was expressed in terms of μg/ml after incubation at 37° C. for 20 hours.

A further assay relates to S. marcescens 35. The description is as above. The note with it: Serratia marcescens, 37° C. for 20 hours, 10^8 viable cells per ml. The format is cell-based. Here is the method: as §1

Take `CCO/N=C(\C(=O)NC1C(=O)N2C(C(=O)[O-])=C(C[n+]3cccc(N(C)C)c3)CSC12)c1nsc(N)n1` (stereo not drawn) [Test Compound (2), 7-[2-Ethoxyimino-2-(5-amino-1,2,4-thiadiazol-3-yl)acetamido]-3-(3-dimethylamino-1-pyridiniomethyl)-3-cephem-4-carboxylate (syn isomer)]: the MIC (as a rule, the least concentration at which growth counts as inhibited) stood at 0.39 µg/mL (≈ 0.732 µM) in the assay on B. subtilis ATCC 6633 and 1.56 µg/mL (≈ 2.93 µM) in the assay with S. marcescens 35.

`CCO/N=C(\C(=O)NC1C(=O)N2C(C(=O)[O-])=C(C[n+]3cccc(NC)c3)CSC12)c1nsc(N)n1` (stereo not drawn) [Test Compound (1), 7-[2-Ethoxyimino-2-(5-amino-1,2,4,-thiadiazol-3-yl)acetamido]-3-(3-methylamino-1-pyridiniomethyl)-3-cephem-4-carboxylate (syn isomer)]: the results for the MIC against B. subtilis ATCC 6633 and against S. marcescens 35 were 0.78 µg/mL (≈ 1.5 µM) and 1.56 µg/mL (≈ 3.01 µM), respectively.

As to `CCO/N=C(\C(=O)NC1C(=O)N2C(C(=O)[O-])=C(C[n+]3cccc(OC)c3)CSC12)c1nsc(N)n1` (stereo not drawn) [Test Compound (3), 7-[2-Ethoxyimino-2-(5-amino-1,2,4-thiadiazol-3-yl)acetamido]-3-(3-methoxy-1-pyridiniomethyl)-3-cephem-4-carboxylate (syn isomer)], the figures for the MIC in the assay on B. subtilis ATCC 6633 and against S. marcescens 35 were 0.78 µg/mL (≈ 1.5 µM) and 1.56 µg/mL (≈ 3 µM), respectively.
